We go through nine compounds from patent US20260216172A1, “COMPOUNDS AND METHOD FOR TREATING HIV INFECTION” (The United States of America, as represented by the …, priority 2023, published 2026).

Like-named read-outs stand apart in the source and are kept apart here. Some results are limits rather than exact numbers.

Series [1] can be described thus: Cell viability of uninfected drug control wells, CEM-SS cells (XTT). In kind it is cell-based. Conditions: human, read-out: TC50. The procedure: (§1) (a) Anti-HIV Cytoprotection Evaluation: Inhibition of virus-induced cytopathic effects (CPE) and cell viability following HIV replication in CEM-SS cells were measured by the use of XTT tetrazolium dye. CEM-SS cells (2.5×10^3 cells per well) were seeded in 96-well U-bottomed tissue culture plates in RPMI medium supplemented with 10% FBS, 2 mM L-glutamine, 100 U/ml penicillin and 100 μg/ml streptomycin. Serially diluted compounds (6 concentrations) and HIV-1RF diluted to a pre-determined titer to yield 85 to 95% cell killing at 6 days post-infection were be added to the plate. AZT was evaluated in parallel as a positive control. Following incubation at 37° C., 5% CO2 for six days, cell viability was measured by XTT staining. The optical density of the cell culture plate will be determined spectrophotometrically at 450 and 650 nm using Softmax Pro 4.6 software. Percent CPE reduction of the virus-infected wells and the percent cell viability of uninfected drug control wells was calculated to define the EC50, TC50 and therapeutic index (TI50) using Microsoft Excel Xlfit4.
as §1, with “Inhibition” for “(a) Anti-HIV Cytoprotection Evaluation: Inhibition”, “by” for “by the use of”, “wells were” for “wells was”
A general note: Tetrazolium assays rely on reduction of a dye to a coloured formazan, in cell work by metabolically active cells.

The nature of series [2]: Cytotoxicity in PBMCs (XTT). The series is classed as cell-based. Conditions: human, PHA-P stimulated PBMCs pooled from three donors; PBMC, HIV-192RW009, 7 days, XTT; read-out: TC50. Here is the method:
(§2) (b) Anti-HIV-1 Cytoprotection Assay in PBMCs: PHA-P stimulated PBMCs from three donors were pooled together and re-suspended in fresh tissue culture medium at 1×10^6 cells/ml and plated in the interior wells of a 96 well round bottom microplate at 50 μL/well. A 100 μL volume of 2× concentrations of compound-containing media were transferred to the round-bottom 96-well plate containing the cells in triplicate. Fifty microliters (50 μL) of HIV-1 at a pre-determined dilution was added. Each plate contained cell control wells and virus control wells in parallel with the experimental wells. After 7 days in culture, efficacy was evaluated by measuring the reverse transcriptase in the culture supernatants and the cells were stained with the tetrazolium dye XTT to evaluate cytotoxicity.
as §2, with “This Example illustrates anti-HIV cytoprotection provided by compounds” for “(b) Anti-HIV-1 Cytoprotection Assay”, “accordance with another aspect of the invention, namely in PBMCs.” for “PBMCs:”

A further series has as its system HIV-1RF. Nature of the series: Anti-HIV cytoprotection evaluation in CEM-SS cells (CPE inhibition, XTT). The following applies: Human immunodeficiency virus 1, 144 h, 6 days. In kind it is cell-based. Here is the method:
as §1
as §1, with “Inhibition” for “(a) Anti-HIV Cytoprotection Evaluation: Inhibition”, “by” for “by the use of”, “wells were” for “wells was”

For a further series, the system named is HIV-192RW009. Nature of the series: Anti-HIV-1 cytoprotection assay in PBMCs (reverse transcriptase in supernatant). In kind it is cell-based. The following applies: Human immunodeficiency virus 1, 168 h; PBMC, HIV-192RW009, 7 days. The procedure:
as §2

Series [3] is described as follows: Pharmacokinetic study in male CD-1 mice. The series is classed as in vivo. The following applies: for AUC0-inf: 5 mg/kg; for AUC0-inf / AUC(0-t) / Cmax / MRT inf / Tmax / half-life / tlast: single IV bolus 5 mg/kg of compound 17, male CD-1 mice, plasma, 18 and 19 measured as metabolites; for AUC(0-t) / Cmax / MRT inf / Tmax / half-life: mouse. Here is the method: Male CD-1 mice weighing between […] were dosed via orbital sinus injection and blood was collected via submandibular vein. IV dosing solutions were prepared in DMSO:PEG400:Saline (5:35:60, v/v/v) at 1 mg/mL concentration of the prodrug. Blood samples (50 μL each time point) were obtained via Culex at predetermined time points (0, 5, 15, 30, 60, 120, 240, 360, 480 and 1440 min) after dosing. Plasma was obtained by centrifugation within 30 minutes after collection and aliquots of dosing solutions were taken and analyzed at the same time with plasma samples using a validated LC-MS/MS method developed on a Shimadzu HPLC system interfaced to a Sciex QTRAP 5500 mass spectrometer. Eluents were gradient mixtures of water and acetonitrile with 0.10% formic acid. HPLC column was ACE 5 C8, 50×2.1 mm, […]. PK parameters of the analytes were obtained using Phoenix®, WinNonlin® software (version 8.1).
The study was performed in male CD-1 mice to assess pharmacokinetics (PK) of prodrug 17 and its metabolites 18 and 19.

Series [4] concerns simian immunodeficiency virus (SIV). Conditions: SAMT-247 in combination with ΔV1DNA-ALVAC/gp120/alum vaccine; Rahman et al., Nature Microbiology 8; cited from earlier work.
Where [5] appears, read: male, CD-1, mouse, in vivo, iv, read-out: AUC0-inf.

For orientation: EC50 means the concentration that produces a half-maximal response. Higher therefore signals a need for much substance. `CCCC(=O)OCSc1ccccc1C(=O)NCCn1ccc(=O)c2cc(F)ccc21` [Compound 1, ((2-((2-(6-fluoro-4-oxoquinolin-1(4H)-yl)ethyl)carbamoyl)phenyl)thio)methyl butyrate]: in series [1], the CC50 at 6 days is 56.2 µM. For the same compound, the CC50 at 7 days in series [2] is more than 100 µM. The EC50 with HIV-1RF came to 0.56 µM; in the series with HIV-192RW009 it was 2.48 µM.

`CCCC(=O)OCSc1ccccc1C(=O)NCCn1ccc(=O)c2cc3c(cc21)OCO3` [Compound 2, ((2-((2-(8-oxo-[1,3]dioxolo[4,5-g]quinolin-5(8H)-yl)ethyl)carbamoyl)phenyl)thio)methyl butyrate]: in series [1], the CC50 at 6 days turned out to be 32.2 µM. In addition, in series [2], the CC50 at 7 days is more than 100 µM. For the same compound, the EC50 in the series with HIV-1RF was 1.15 µM; in the series with HIV-192RW009, 0.48 µM.

On to `Cn1cnc([N+](=O)[O-])c1Sc1ccccc1C(=O)NCCn1ccc(=O)c2cc3c(cc21)OCO3` [Compound 3, 2-((1-methyl-4-nitro-1H-imidazol-5-yl)thio)-N-(2-(8-oxo-[1,3]dioxolo[4,5-g]quinolin-5(8H)-yl)ethyl)benzamide], for which, in series [2], the CC50 at 7 days is more than 100 µM. In the series on HIV-192RW009, the midpoint of the response, the EC50, lay at 17.7 µM.

`CCCC(=O)OCSc1ccccc1C(=O)NCCn1cc(C(=O)NCc2cccc(C)n2)c(=O)c2cc3c(cc21)OCO3` [Compound 4, ((2-((2-(7-(((6-methylpyridin-2-yl)methyl)carbamoyl)-8-oxo-[1,3]dioxolo[4,5-g]quinolin-5(8H)-yl)ethyl)carbamoyl)phenyl)thio)methyl butyrate]: the CC50 at 6 days in series [1] was more than 100 µM. Also, the CC50 at 7 days in series [2] is more than 100 µM. The EC50 in the series on HIV-1RF was 0.48 µM; in the series on HIV-192RW009, 1.09 µM.

Take `CCCC(=O)OCSc1ccccc1C(=O)NCCn1cc(C(=O)NCc2ccccn2)c(=O)c2cc3c(cc21)OCO3` [Compound 5, ((2-((2-(8-oxo-7-((pyridin-2-ylmethyl)carbamoyl)-[1,3]dioxolo[4,5-g]quinolin-5(8H)-yl)ethyl)carbamoyl)phenyl)thio)methyl butyrate]: the CC50 at 6 days in series [1] is more than 100 µM. In addition, the CC50 at 7 days in series [2] was more than 100 µM. For the same compound, the EC50 in the series with HIV-1RF was determined as 0.54 µM; in the series with HIV-192RW009, 0.91 µM.

Regarding `Cc1cccc(CNC(=O)c2cn(CCNC(=O)c3ccccc3Sc3c([N+](=O)[O-])ncn3C)c3cc4c(cc3c2=O)OCO4)n1` [Compound 6, 5-(2-(2-((1-methyl-4-nitro-1H-imidazol-5-yl)thio)benzamido)ethyl)-N-((6-methylpyridin-2-yl)methyl)-8-oxo-5,8-dihydro-[1,3]dioxolo[4,5-g]quinoline-7-carboxamide], the CC50 at 7 days in series [2] was more than 100 µM. A half-maximal effect with HIV-192RW009 (EC50) was put at 30.9 µM.

As a reminder, the AUC(0-t) is exposure summed from dosing to a finite time, without extrapolation to infinity. As a reminder, the Cmax is the highest concentration seen after dosing. As a reminder, the MRT inf is the average time that molecules of a dose stay in the body. As a reminder, the Tmax is the time at which the peak concentration occurs. For orientation: half-life means the time needed for the level to fall by half in the phase considered. `Cc1cccc(CNC(=O)c2cn(CCNC(=O)c3ccccc3Sc3c([N+](=O)[O-])ncn3C)c3cc4c(cc3c2=O)OC(F)(F)O4)n1` [Compound 18, 2,2-difluoro-5-(2-(2-((1-methyl-4-nitro-1H-imidazol-5-yl)thio)benzamido)ethyl)-N-((6-methylpyridin-2-yl)methyl)-8-oxo-5,8-dihydro-[1,3]dioxolo[4,5-g]quinoline-7-carboxamide]: in series [3] (setting [5]), the AUC0-inf is 0.0425 µg·h/mL. Further, in series [3] (metabolite versus 17 after single IV bolus 5 mg/kg of 17, male mice), the “Exposure (AUC0-t) lower than that of 17” value is listed as “approximately 17 fold”. Besides, in series [3] (in vivo), the AUC(0-t) amounted to 0.0348 µg·h/mL, the Cmax stood at 0.0756 µg/mL, the MRT inf is 224 min and the Tmax worked out at 4.98 min. Moreover, the half-life in series [3] (in vivo) was 164 min. Further, in series [3], the tlast is 8.00 h and the AUC0-inf was found to be 0.0348 µg·h/mL.

On to `Cc1cccc(CNC(=O)c2cn(CCNC(=O)c3ccccc3S)c3cc4c(cc3c2=O)OC(F)(F)O4)n1` [Compound 19], for which the AUC0-inf in series [3] (setting [5]) came out at 0.0131 µg·h/mL. Further, in series [3] (in vivo), the AUC(0-t) was 0.0128 µg·h/mL, the Cmax is 0.0469 µg/mL, the MRT inf is 19.8 min and the Tmax came out at 4.98 min. Moreover, the half-life in series [3] (in vivo) was 21 min. For the same compound, in series [3], the tlast is given as 2.00 h and the AUC0-inf was determined as 0.0128 µg·h/mL.

For `CC(=O)Sc1ccccc1C(=O)NCCC(N)=O` [SAMT-247, 3-(S-acetylthiosalicyloyl)aminopropamide or N-[2-ccetylthiobenzoyl]-β-alaninamide], the “female macaques protected against vaginal acquisition of SIV” value in series [4] is 16 out of 20.
